{"source": "ChEMBL document CHEMBL1150344", "about": "“Interaction of antagonists with calmodulin: insights from molecular dynamics simulations” (J Med Chem, 2008)", "biological_target": "Calmodulin-1 (Homo sapiens, UniProt P0DP23)", "assay": "Binding affinity to calmodulin", "data": [{"smiles": "CCCCOc1ccc([C@@H](C)NCCCNCCC(c2ccccc2)c2ccccc2)cc1OCCCC", "values": [{"measurement": "Kd", "result": 0.018, "unit": "µM"}]}]}
